Experimental findings from ChEMBL document CHEMBL6071198, “Advances in Cancer Treatment and Monitoring: Insights from KRAS Inhibitors and Germline Epitope Burden Monitoring” (ACS Med Chem Lett, 2024) are described below.

For assay [1], the target named is GTPase KRas/RAF1 (Homo sapiens, UniProt P01116). The assay is described as follows: Inhibition of biotinylated wild type KRAS (1 to 169 residues) (unknown origin)/CRAF RBD (unknown origin) protein-protein interaction preincubated for 60 mins followed by SOS1 and GTPgs addition measured after 60 mins by FRET assay.
Assay [2] can be described thus: Inhibition of biotinylated KRAS G12D mutant (unknown origin)/CRAF RBD (unknown origin) protein-protein interaction preincubated for 60 mins followed by SOS1 and GTPgs addition measured after 60 mins by FRET assay. Details: species or system Homo sapiens.

A word on the IC50: it is the point on the concentration scale where inhibition reaches its midpoint. Low readings indicate greater potency, high ones weaker potency. Regarding `C[C@H](NC(=O)[C@H]1C[C@@H](O)CN1C(=O)[C@@H](NC(=O)CCOCCCN1CCC[C@H]1COc1nc(N2CC3CCC(C2)N3)c2cc(Cl)c(-c3ccc(F)c4sc(N)c(C#N)c34)c(F)c2n1)C(C)(C)C)c1ccc(-c2c(F)cccc2F)cc1`, the half-maximal inhibitory concentration (IC50) in assay [1] stood at 77.7 nM; in assay [2] it was 7.67 nM.
Turning to `C#Cc1c(F)ccc2cc(O)cc(-c3ncc4c(N5CC6CCC(C5)N6)nc(OC[C@@H]5CCCN5CCCOCCC(=O)N[C@H](C(=O)N5C[C@H](O)C[C@@H]5C(=O)N[C@@H](C)c5ccc(-c6ccncc6C#N)cc5)C(C)(C)C)nc4c3F)c12`, the half-inhibitory concentration (IC50) worked out at 24.2 nM in assay [1] and 7.93 nM in assay [2].
For the compound `Cc1ncsc1-c1ccc([C@H](C)NC(=O)[C@H]2C[C@@H](O)CN2C(=O)[C@@H](NC(=O)CCOCCCN2CCC[C@H]2COc2nc(N3CC4CCC(C3)N4)c3cnc(-c4cc(O)cc5cccc(F)c45)c(F)c3n2)C(C)(C)C)cc1`, the IC50 in assay [1] was 158 nM; in assay [2], 8.21 nM.
The matching figures for `C[C@H](NC(=O)[C@H]1C[C@@H](O)CN1C(=O)[C@@H](NC(=O)CCOCCCN1CCC[C@H]1COc1nc(N2CC3CCC(C2)N3)c2cc(C(F)(F)F)c(-c3ccc(F)c4sc(N)c(C#N)c34)c(F)c2n1)C(C)(C)C)c1ccc(-c2c(F)cccc2F)cc1`: 26.9 nM and 8.52 nM.
The corresponding values for `Cc1ncsc1-c1ccc([C@H](C)NC(=O)[C@H]2C[C@@H](O)CN2C(=O)[C@@H](NC(=O)CCOCCCN2CCC[C@H]2COc2nc(N3CC4CCC(C3)N4)c3cc(Cl)c(-c4ccc(F)c5sc(N)c(C#N)c45)c(F)c3n2)C(C)(C)C)cc1` are 25.9 nM and 8.18 nM.
The corresponding values for `C#Cc1c(F)ccc2cc(O)cc(-c3ncc4c(N5CC6CCC(C5)N6)nc(OC[C@@H]5CCCN5CCCOCCC(=O)N[C@H](C(=O)N5C[C@H](O)C[C@@H]5C(=O)N[C@@H](C)c5ccc(-c6c(F)cccc6F)cc5)C(C)(C)C)nc4c3F)c12` are 41.9 nM and 9.4 nM.
